Read-outs that look alike come from different tables or passages of the source.
Experiments:
HIV‐1 [HE] = assay: Anti-HIV activity, HIV-1 in wild-type CEM/0 cells; assay type: cell-based; settings: Human immunodeficiency virus 1, CCRF-CEM, read-out: Antiviral activity CEM/0 HIV‐1 [HE] EC50
in vitro = settings: human
Method: All TriPPPro‐compounds 10 and 20, as well as their parent nucleosides and the corresponding NTPs, were evaluated for their antiviral activity (expressed as EC50 values) against HIV‐1 (wild‐type CEM/0 cells) and HIV‐2 (wild‐type CEM/0 cells and thymidine kinase‐deficient (CEM/TK^−) cells) with concomitant determination of cytotoxicity in the same cell line (Table 3 ).

[1] = Chemical hydrolysis in phosphate buffer saline (PBS, pH 7.3); assay type: physicochemical; settings: PBS pH 7.3, 37 °C, read-out: PBS pH 7.3 t 1/2 (converted)
Method: Part 4. Chemical Hydrolysis of TriPPPro-compounds 10 and 20.
Second prepare 1.9 mM hydrolysis […]
Then, aliquots of 50 µL human

HIV‐2 [ROD)] = assay: Anti-HIV activity, HIV-2 in thymidine kinase-deficient CEM/TK^− cells; assay type: cell-based
Method: (§1) Part 9. Anti-HIV activity assay.
(§2) The produce was used as previously reported. 5 Inhibition of HIV-1(IIIB)- and HIV-2(ROD)-induced cytopathogenicity in wild-type CEM/0 and thymidine kinase-deficient CEM/TK– cell cultures was measured in […]
(§3) containing appropriate dilutions of the test compounds. After 4−5 days of incubation at 37 °C in a CO2-controlled humidified atmosphere, CEM giant (syncytium) cell formation was examined microscopically. The […]
(§4) giant cell formation by 50%.
(§5) Part 10. Primer-extension assays. […]

HIV‐2 [ROD] = assay: Anti-HIV activity, HIV-2 in wild-type CEM/0 cells; assay type: cell-based; settings: Human immunodeficiency virus 2, CCRF-CEM, read-out: Antiviral activity CEM/0 HIV‐2 [ROD] EC50
Method: as §1, §2, §3, §4, §5

[2] = CEM/0 cells (wild-type CD4+ T-cells)
[3] = Human immunodeficiency virus 2, CEM-TK(-), read-out: Antiviral activity CEM/TK^− HIV‐2 [ROD)] EC50
[4] = wild-type CEM/0 cells, mean ±SD n = 2–3
[5] = Human immunodeficiency virus 2, CEM-TK(-), thymidine kinase-deficient CEM/TK^− cells, mean ±SD n = 2–3; read-out: Antiviral activity CEM/TK^− HIV‐2 [ROD)] EC50

half-life at 1.9 mM [1] [days]	EC50 (HIV‐1 [HE]; [4]) [nM]	EC50 (HIV‐2 [ROD)]; [5]) [nM]	EC50 (HIV‐2 [ROD]; [4]) [nM]	EC50 (HIV‐2 [ROD)]; thymidine kinase-deficient CEM/TK^− cells, mean ±SD n = 2–3; read-out: Antiviral activity CEM/TK^− HIV‐2 [ROD)] EC50) [nM]	SMILES	EC50 (HIV‐1 [HE]) [nM]	CC50 (in vitro; [2]) [µM]	EC50 (HIV‐2 [ROD)]; [3]) [nM]	EC50 (HIV‐2 [ROD]) [nM]	CC50 (in vitro) [µM]
–	820 ± 330	> 100000	1950 ± 2630	–	O=c1[nH]c(=O)n([C@H]2C[C@H](F)[C@@H](CO)O2)cc1Cl [1d (FddClU), FddClU, reference compound]	–	> 100	–	–	–
> 83.3	1200 ± 50	> 20000	2200 ± 1240	–	CCCCCCCCCCCCCCCCCCOP(=O)(OCC(CC)CCCC)OP(=O)(O)OP(=O)(O)OC[C@H]1O[C@@H](n2cc(Cl)c(=O)[nH]c2=O)C[C@@H]1F (stereo partly drawn) [10dw]	–	56.1 ± 15.8	–	–	–
> 83.3	210 ± 60	120 ± 100	180 ± 100	–	CCCCCCCCCCCCCCCCCCOP(=O)(OCC(CC)CCCC)OP(=O)(O)OP(=O)(O)OC[C@@H]1O[C@H](n2cc(F)c(N)nc2=O)CS1 (stereo partly drawn) [10cw]	–	64 ± 23.6	–	–	–
–	–	–	–	–	Cc1cn([C@H]2C[C@H](N=[N+]=[N-])[C@@H](CO[P@](=O)(O)O[P@](=O)(O)OP(=O)(O)O)O2)c(=O)[nH]c1=O [AZTTP, reference compound]	6.9 ± 8.7	> 100	57900 ± 10900	5.5 ± 4	–
–	210 ± 20	> 100000	150 ± 17	–	O=c1ccn([C@H]2C[C@H](F)[C@@H](CO)O2)c(=O)[nH]1 [1e (FddU), FddU, reference compound]	–	> 100	–	–	–
–	14 ± 8.5	> 150000	3.4 ± 2.1	> 100000	Cc1cn([C@H]2C[C@H](N=[N+]=[N-])[C@@H](CO)O2)c(=O)[nH]c1=O [1b (AZT), AZT, reference compound]	–	> 100	–	–	–
> 83.3	1500 ± 1390	280 ± 120	860 ± 190	–	CCCCCCCCCCCCCCCCCCOP(=O)(OCC(CC)CCCC)OP(=O)(O)OP(=O)(O)OC[C@H]1O[C@@H](n2cc(C)c(=O)[nH]c2=O)C[C@@H]1F (stereo partly drawn) [10ew]	–	52.6 ± 10.9	–	–	–
> 62.5	7580 ± 2200	11200 ± 4990	8010 ± 2810	–	CCCCCCCCCCCCCCCCCCP(=O)(OCc1ccc(OC(=O)CCCC)cc1)OP(=O)(O)OP(=O)(O)OC[C@H]1O[C@@H](n2cc(/C=C/Br)c(=O)[nH]c2=O)C[C@@H]1O (stereo partly drawn) [10gz]	–	43.9 ± 8.3	–	–	–
–	–	–	–	–	Nc1nc(NC2CC2)c2ncn([C@H]3C=C[C@@H](CO)C3)c2n1 [1h (ABC), abacavir, reference compound]	–	> 100	–	–	–
> 83.3	160 ± 190	6100 ± 3000	54 ± 28	–	CCCCCCCCCCCCCCCCCCOP(=O)(OCC(CC)CCCC)OP(=O)(O)OP(=O)(O)OC[C@H]1O[C@@H](n2cc(C)c(=O)[nH]c2=O)C[C@@H]1N=[N+]=[N-] (stereo partly drawn) [10bw]	–	45.6	–	–	–
15	26 ± 28	360 ± 240	14 ± 16	–	CCCCCCCCCCCCCCCCCCOP(=O)(OCc1ccc(OC(=O)CCCC)cc1)OP(=O)(O)OP(=O)(O)OC[C@H]1O[C@@H](n2ccc(=O)[nH]c2=O)C[C@@H]1F (stereo partly drawn) [10fy]	–	43.3 ± 5.1	–	–	–
–	2.5 ± 2.9	> 100000	4.3 ± 1.7	–	Cc1cn([C@H]2C[C@H](F)[C@@H](CO)O2)c(=O)[nH]c1=O [1f (FLT), FLT, reference compound]	–	> 100	–	–	–
> 83.3	> 10000	11400 ± 4240	4210 ± 370	–	CCCCCCCCCCCCCCCCCCOP(=O)(OCC(CC)CCCC)OP(=O)(O)OP(=O)(O)OC[C@H]1O[C@@H](n2cc(/C=C/Br)c(=O)[nH]c2=O)C[C@@H]1O (stereo partly drawn) [10gw]	–	60.3 ± 20.7	–	–	–
> 62.5	160 ± 60	20 ± 21	140 ± 40	–	CCCCCCCCCCCCCCCCCCP(=O)(OCc1ccc(OC(=O)CCCC)cc1)OP(=O)(O)OP(=O)(O)OC[C@@H]1O[C@H](n2cc(F)c(N)nc2=O)CS1 (stereo partly drawn) [10cz]	–	66 ± 35.6	–	–	–
> 83.3	370 ± 470	110 ± 140	140 ± 62	–	CCCCCCCCCCCCCCCCCCOP(=O)(OCC(CC)CCCC)OP(=O)(O)OP(=O)(O)OC[C@H]1O[C@@H](n2ccc(=O)[nH]c2=O)C[C@@H]1F (stereo partly drawn) [10fw]	–	63.5 ± 27.2	–	–	–
7.54	100 ± 30	26 ± 35	180 ± 110	–	CCCCCCCCCCCCCCCCCCOP(=O)(OCC(CC)CCCC)OP(=O)(O)OP(=O)(O)OC[C@@H]1C=C[C@H](n2cnc3c(NC4CC4)nc(N)nc32)C1 (stereo partly drawn) [10hw]	–	> 100	–	–	–
> 16.7	300 ± 300	1580 ± 1970	780 ± 300	–	CCCCCCCCCCCCCCCCCCOP(=O)(OCc1ccc(OC(=O)CCCC)cc1)OP(=O)(O)OP(=O)(O)OC[C@H]1O[C@@H](n2cc(C)c(=O)[nH]c2=O)C[C@@H]1F (stereo partly drawn) [10ey]	–	54.1 ± 15.8	–	–	–
–	8.6 ± 5.7	10 ± 10	20 ± 1	–	Nc1nc(=O)n([C@@H]2CS[C@H](CO)O2)cc1F [1c (FTC), FTC, reference compound]	–	> 100	–	–	–
8.46	64 ± 80	160 ± 40	39 ± 33	–	CCCCCCCCCCCCCCCCCCP(=O)(OCc1ccc(OC(=O)CCCC)cc1)OP(=O)(O)OP(=O)(O)OC[C@H]1O[C@@H](n2ccc(=O)[nH]c2=O)C[C@@H]1F (stereo partly drawn) [10fz]	–	42 ± 10.6	–	–	–
2.12	460 ± 360	1830 ± 1650	460 ± 400	–	CCCCCCCCCCCCCCCCCCP(=O)(OCc1ccc(OC(=O)CCCC)cc1)OP(=O)(O)OP(=O)(O)OC[C@H]1O[C@@H](n2cc(C)c(=O)[nH]c2=O)C[C@@H]1F (stereo partly drawn) [10ez]	–	45.3 ± 16.7	–	–	–

SMILES	half-life at 1.9 mM [1] [days]	EC50 (HIV‐1 [HE]; [4]) [nM]	EC50 (HIV‐2 [ROD)]; [5]) [nM]	EC50 (HIV‐2 [ROD]; [4]) [nM]	EC50 (HIV‐2 [ROD)]; thymidine kinase-deficient CEM/TK^− cells, mean ±SD n = 2–3; read-out: Antiviral activity CEM/TK^− HIV‐2 [ROD)] EC50) [nM]	EC50 (HIV‐1 [HE]) [nM]	CC50 (in vitro; [2]) [µM]	EC50 (HIV‐2 [ROD)]; [3]) [nM]	EC50 (HIV‐2 [ROD]) [nM]	CC50 (in vitro) [µM]
CCCCCCCCCCCCCCCCCCP(=O)(OCCCC)OP(=O)(O)OP(=O)(O)OC[C@H]1O[C@@H](n2ccc(=O)[nH]c2=O)C[C@@H]1F (stereo partly drawn) [10fx]	> 83.3	–	–	–	–	41 ± 44	67.3 ± 33.8	150 ± 60	29 ± 7.1	–
CCCCCCCCCCCCCCCCCCP(=O)(OCCCC)OP(=O)(O)OP(=O)(O)OC[C@H]1O[C@@H](n2cc(C)c(=O)[nH]c2=O)C[C@@H]1F (stereo partly drawn) [10ex]	6.17	–	–	–	–	390 ± 130	43.6	1010 ± 1140	520 ± 670	–
CCCCCCCCCCCCCCCCCCP(=O)(OCCCC)OP(=O)(O)OP(=O)(O)OC[C@H]1O[C@@H](n2cc(Cl)c(=O)[nH]c2=O)C[C@@H]1F (stereo partly drawn) [10dx]	> 83.3	–	–	–	–	2590 ± 710	54.4 ± 15.9	3210 ± 1120	2230 ± 1200	–
O=c1[nH]c(=O)n([C@H]2C[C@H](O)[C@@H](CO)O2)cc1/C=C/Br [1g (BVDU), BVDU, reference compound]	–	> 250000	> 250000	> 250000	–	–	–	–	–	207 ± 60
CCCCCCCCCCCCCCCCCCP(=O)(OCCCC)OP(=O)(O)OP(=O)(O)OC[C@H]1O[C@@H](n2cc(/C=C/Br)c(=O)[nH]c2=O)C[C@@H]1O (stereo partly drawn) [10gx]	> 41.7	–	–	–	–	> 10000	51.5 ± 17	24000 ± 2720	> 10000	–
CCCCCCCCCCCCCCCCCCP(=O)(OCCCC)OP(=O)(O)OP(=O)(O)OC[C@@H]1O[C@H](n2cc(F)c(N)nc2=O)CS1 (stereo partly drawn) [10cx]	> 83.3	–	–	–	–	49 ± 45	46	11	94 ± 23	–
